In patent US20140024620A1, “Methods for Inhibiting Cell Proliferation in EGFR-Driven Cancers” (ARIAD PHARMACEUTICALS, INC., priority 2010, published 2014):

System: Ba/F3 cells expressing EGFR-Del/T790M
Assay: tumor model using Ba/F3 cells expressing EGFR-Del/T790M
Type: in vivo, mice
Source text: NSCLC cell lines as well as engineered Ba/F3 and NIH3T3 cell lines were used to examine the activity of compounds of formula (I) against 3 general forms of EGFR: native EGFR (the naturally occurring form), EGFR with an activating mutation (delE746_A750 [Del] or L858R; this form is sensitive to first generation EGFR inhibitors), and EGFR with both an activating mutation and a T790M resistance mutation (L858R/T790M or Del/T790M; the addition of the T790M mutation makes this form resistant to first generation EGFR inhibitors). Effects of test compounds on EGFR signaling were assessed by measuring levels of phosphorylated EGFR, effects on in vitro proliferation measured by a growth or viability assay, and effects on in vivo tumor growth measured in mice following daily oral dosing.

**Q.** Which results are given for COc1cc(N2CCC(N3CCN(C)CC3)CC2)ccc1Nc1ncc(Cl)c(Nc2ccccc2P(C)(C)=O)n1 [AP26113]?
**A.** inhibition at 50 mg/kg (Mus musculus, BaF3, 24 h, read-out: inhibition of levels of phosphorylated EGFR in the tumor): > 80%; tumor growth inhibition (daily oral dosing with 50 mg/kg): > 90%
